The test system of data set [1] is collagen induced arthritis (CIA). In words: CIA model, arthritis index (AI) score. It is filed as in vivo, DBA/1J mice. Particulars: for effectiveness in the murine CIA model of RA relative to SEQ ID NO. 99: studies 1-5 and FIGS. 1-4; for progression of disease, as indicated by AI scores: two treatments of 33 nmoles in ICFA adjuvant, Enbrel 3 mg/kG daily for the first 14 days. On the procedure:
The following five studies are of CEL-2000 therapeutic vaccine for collagen induced arthritis (CIA) where the first step was to identify a good animal model for testing the vaccine, which is the collagen induced arthritis (CIA) model in young (6-7) week old male DBA/1J mice. These mice received 2 injections of bovine collagen the first in complete Freund's adjuvant (CFA) on day 0 and then 3 weeks later on day 21, in Incomplete CFA. After the second collagen injection, the mice were evaluated daily for any joint swelling or redness. Each of the paws was scored on a 4 point scale (arthritis index Arthritis Index (AI)) with respect to the number of digits with symptoms and the thickness of the paw measured, at least 3-4 times a week. Each mouse was weighed weekly.
The first study is the CIA model CEL-2000 therapeutic vaccination conjugate specificity effect on AI scores (study 4.1 see FIG. 1 and legend). When significant disease is noted, usually about day 28, the mice are grouped (n=8) with a range of scores between 1 and 6 and group mean of 2.5 to 3. At this point the therapy begins according to protocol. Controls include groups with induced disease but no therapy and groups of healthy mice without induced disease. A therapy control of Enbrel (3 mg/kG daily) was included. In this study (FIG. 1), mice received two treatments of 33 nmoles (for CEL-2000 equivalent to 4.8 mg/kG) of CEL-2000, (the same dose as used for the L.E.A.P.S. HSV vaccines), or other conjugates of the same collagen peptide used in CEL-2000 using the same ICBLs as in the HSV or EAM systems for comparison using a GMP grade ICFA adjuvant.
AI scores are evaluations on a scale of 0=normal to 4=maximal effect of joint thickening, redness, immobilization of joints in a digit or total paw for each of the 4 paws in the CIA mouse model of rheumatoid arthritis.
Treatment started when group score was 3.5. This was done to have all groups starting with same score, as opposed to the range between […] seen in the first study. The same dose of Enbrel as was used in the first study but was given every other day for the entire study period of 28 days.

The next data set concerns cytokines. In words: Serum cytokines after immunization (Ray Biotech protein microarrays). It is filed as in vivo, A/J mice. Particulars: unmodified J ICBL emulsified in Seppic ISA51. On the procedure:
The outcome of the immune response to vaccines is likely at least in part determined by the cytokines elicited by the immunization. Cytokines elicited by immunization of A/J mice with either the J, JgD or JH peptides emulsified in Seppic ISA51 were evaluated from serum obtained on days 3, 10 and 24 after immunization using Ray Biotech protein microarrays. […] IL12 is produced by DCs and macrophages and promotes the development of Th1 responses which are characterized by production of IL2 and IFN-γ. […] L.E.A.P.S. conjugates ex vivo studies

Data set [2] has as its system collagen induced arthritis (CIA). In words: CIA model, histopathology of right rear feet. Particulars: for disease pathology compared statistically with untreated CIA mice: Enbrel: 14 days after cessation of therapy, 3×CEL-2000: 3 weeks after immunization; for histopathology: bone resorption / histopathology: cartilage damage / histopathology: inflammation / histopathology: pannus: hind paw and ankle, Enbrel for 14 days, CEL-2000 100 nmol on days 0 and 7. It is filed as in vivo, DBA/1J mice. The text has this: The fourth study is for the CIA model CEL-2000 therapeutic vaccination; histopathology (study 4.4 see FIG. 4 and legend). At the termination of the experiments the animals were euthanized, the right rear feet were collected and stored individually in buffered formalin to be fixed in preparation for paraffin embedding, sectioning, staining and analysis. The feet in buffered formalin were sent for processing, reading and plotting of the data (representative sections from mid group specimens were photographed).
The pathologists scored the feet for disease pathology in 4 areas: inflammation, pannus, cartilage and bone. FIG. 4 is a summary plot of the analysis performed cores of the 4 areas from the following groups: Control no disease; CIA disease: CIA Disease Enbrel daily for 14 days continued for 2 more weeks before termination: CEL-2000 and CEL-2001 groups (vaccinated on day 0 and 7) from study 1 (FIG. 1) and from study 2 (FIG. 2) 1× and 3×CEL-2000 vaccinated groups on day 0 and 7.

The subject of data set [3] is vaccine peptides, collagen or citrulline or components used to make vaccines. As to conditions: mouse, in vivo. On the procedure: The fifth study is for the CIA-model CEL-2000 vaccination serum antibodies (study 4.5). Antibody production to the vaccine peptides, collagen or citrulline or components used to make vaccines were evaluated in mouse sera from the previous two sets of studies. As expected, all sera recognized the bovine collagen molecule used to induce the disease. Neither the dose, amount of vaccine, nor timing of vaccination seemed to affect the titer or isotype. […] No antibodies were detected with reactivity to the citrulline using a citrulline fibrin peptide substrate in the ELISA. […] (data not shown) L.E.A.P.S. conjugates serum cytokine studies

Here are results for five substances from patent publication US11041013B2, “Methods of preparation and composition of peptide constructs useful for treatment of rheumatoid arthritis” (Cel-Sci Corporation, priority 2008, dated 2021).

Regarding “DGQEEKAGVVSTGLI-GGGGS-TGGKPGIAGFKGEQGPKGEP (DGQEEKAGVVSTGLIGGGGSTGGKPGIAGFKGEQGPKGEP; Completely synthesized peptide construct) [CEL-2001]”, in data set [1], the “effectiveness in the murine CIA model of RA relative to SEQ ID NO. 99” value was “less effective”.

Consider DLLKNGERIEKVEGGG [J], for which the “most remarkable change in cytokine levels upon immunization” value with cytokines is on record as “reduction in IL10 levels”.

“DLLKNGERIEKVEGGGTGGKPGIAGFKGEQGPKGEP (Completely synthesized peptide construct) [CEL-2000, peptide J combined with the human type II collagen peptide 254-273]”: the “AI scores, reduction compared with other conjugates” value in data set [1] (study 4.1, 33 nmoles, versus CEL-2001 or CEL-2002) is reported as “reduced to a greater extent than was seen with other conjugates”. In data set [1] (study 4.1), the “progression of disease, as indicated by AI scores” value was “limited the progression of disease”. Besides, the “progression of disease over the experimental period” value in data set [1] (study 4.2, 100 nmol dose (3× treatment) on days 0 and 7) is “appeared to limit the progression of disease throughout the experimental period”. Further, the “progression of arthritis disease compared with Enbrel” value in data set [1] (study 4.2, 2 doses of 33 or 100 nmol subcutaneously on days 0 and 7 or 0 and 14, Enbrel every other day for 28 days) is “at least as good as those of mice treated with Enbrel”. For the same substance, the “Joint thickening, redness, immobilization of joints in a digit or total paw” value in data set [1] (study 4.2, each of the 4 paws) is “reduced”. Also, in data set [1] (study 4.2, treatment started when group score was 3.5), the “progression of disease, as indicated by reduced AI scores” value is given as “limited the progression of disease”. For the same substance, the “duration of effect versus Enbrel” value in data set [2] (2 vaccinations at 100 nmol, 28 day period) is “more lasting effect than the multiple Enbrel treatments”. For the same substance, the “protection by all 4 histopathology criteria (group ranking)” value in data set [2] (3× (100 nmol) on days 0 and 7, FIG. 4) was “best protected group (least diseased) by all 4 criteria”. Further, in data set [2], the “disease pathology compared statistically with untreated CIA mice” value is “statistically had less disease pathology”, the “histopathology: bone resorption” value is recorded as “less bone resorption in fewer digit joints”, the “histopathology: cartilage damage” value is listed as “minimal” and the “histopathology: inflammation” value is on record as “mild”. The “histopathology: pannus” value in data set [2] is reported as “minimal”.

On to Enbrel [reference compound], for which the “antibodies to Enbrel in sera” value in data set [3] is “antibodies could be detected”. Besides, the “progression of disease, as indicated by AI scores” value in data set [1] (study 4.1) is “slightly more effective than the vaccine”. Further, in data set [2], the “disease pathology compared statistically with untreated CIA mice” value is “not statistically different from untreated CIA mice”, the “histopathology: bone resorption” value is listed as “minimal”, the “histopathology: cartilage damage” value is “mild” and the “histopathology: inflammation” value is on record as “mild”. In data set [2], the “histopathology: pannus” value is “minimal”.

“TGGKPGIAGFKGEQGPKGEP ((254)..(273) Type II Collagen; listed as Homo sapiens) [CEL-2002]”: the “effectiveness in the murine CIA model of RA relative to SEQ ID NO. 99” value in data set [1] is reported as “less effective”.
